“Also recorded” adds a separate entry of the source.
Assay: Cleavage of trypsin-susceptible pNA chromogenic substrate, reverse-phase HPLC
Format: biochemical
Conditions: for ability to cleave D-Ile-Phe-Lys pNA / ability to cleave N-Benzoyl-Pro-Phe-Arg-pNA / ability to cleave N-p-Tosyl-Gly-Pro-Lys 4-pNA: ~2 μg enzyme, 10 μg substrate, 37° C. 2 hrs, 100 mM HEPES pH7.5 10% glycerol, no exogenous heparin
Protocol: The enzymatic activity of recombinant δ tryptase was evaluated by testing its ability to cleave a panel of three trypsin-susceptible p-nitroanilide (pNA) chromogenic substrates; N-Benzoyl-Pro-Phe-Arg-pNA, D-Ile-Phe-Lys pNA, and N-p-Tosyl-Gly-Pro-Lys 4-pNA (Sigma-Adrich, St Louis, Mo.) and was compared to that of rαII tryptase, and commercially available native human lung tryptase (ICN, Costa Mesa, Calif.) and recombinant human lung βII tryptase (Promega, Madison, Wis.). Pro-δ tryptase (ie prior to removal of the EK susceptible activation peptide), recombinant EK alone, and buffer alone acted as negative controls. Approximately equal amounts (˜2 μg) of the enzymes were incubated with each substrate (10 μg) at 37° C. for 2 hrs, in 100 mM HEPES pH7.5 10% glycerol (total reaction volume=50 μl), and then analysed by HPLC using a reverse-phase column (4.6×50 […] RP18 Xterra, Waters, Bedford, Mass.). In this initial investigation no exogenous heparin was added. Substrate cleavage was determined by the detection of new peaks representing the separated peptide and nitroanilide moieties. The amount of substrate cleaved was estimated by measuring the area under the HPLC peak that corresponded to the liberated peptide moiety using Delta T Scan software version 2.04 (Delta T Devices Ltd, Cambridge, UK). The retention time of the liberated nitroanilide was constant and was experimentally determined to be 2.67 mins.

amount of D-Ile-Phe-Lys pNA substrate cleaved, as much as that cleaved by rβII tryptase (area under HPLC peak of liberated peptide moiety, relative to rβII tryptase)	Substance	ability to cleave D-Ile-Phe-Lys pNA	ability to cleave N-Benzoyl-Pro-Phe-Arg-pNA	ability to cleave N-p-Tosyl-Gly-Pro-Lys 4-pNA
	pro-rδ tryptase: Recombinant δ tryptase prior to removal of the EK susceptible activation peptide; negative control	No substrate cleavage was detected		
	rβII tryptase: Commercially available recombinant human lung βII tryptase (Promega) [reference compound]	cleave all three substrates	cleave all three substrates	cleave all three substrates
approximately 12%	rδ tryptase: Recombinant human δ tryptase expressed in bacterial cells, refolded, mature form generated by enterokinase cleavage	able to cleave; also recorded: cleaves	ineffective	ineffective

From patent US7521533B2, “Tryptase polypeptide and uses thereof” (priority 2002, dated 2009)
